In article PMC5424495:

Experiments:
[1] = reversible transimination ring closure of 1,3-distal diimine cone-calix[4]arene (tetrakis(2-ethoxyethoxy)) with alpha,omega-diaminoalkanes H2N(CH2)nNH2, displacing hexylamine chain stopper; no catalyst; thermodynamic equilibrium in dynamic library; conditions: the molecule shown is the open-chain precursor, CD3CN, 2.5 mM, 25.0 °C
[2] = same transimination equilibrium: L1 (bis-hexylimine calix[4]arene) + diamine 3 = C1 + 2 hexylamine; conditions: the molecule shown is the open-chain precursor, CD3CN, 2.5 mM, 25.0 °C, 2 steps

In the case of `CCCCCC/N=C/c1cc2c(OCCOCC)c(c1)Cc1cccc(c1OCCOCC)Cc1cc(/C=N/CCCCCN)cc(c1OCCOCC)Cc1cccc(c1OCCOCC)C2` [C1d (diamine 3d, n=5)], the ring closure, effective molarity ([1]; 20-membered ring) is reported as 1.5 M and the ring closure, K ([2]; 20-membered ring) is reported as 3 M.
`CCCCCC/N=C/c1cc2c(OCCOCC)c(c1)Cc1cccc(c1OCCOCC)Cc1cc(/C=N/CCCCCCN)cc(c1OCCOCC)Cc1cccc(c1OCCOCC)C2` [C1e (diamine 3e, n=6)] showed a ring closure, effective molarity ([1]; 21-membered ring) of 0.01 M and a ring closure, K ([2]; 21-membered ring) of 0.026 M.
`CCCCCC/N=C/c1cc2c(OCCOCC)c(c1)Cc1cccc(c1OCCOCC)Cc1cc(/C=N/CCCCN)cc(c1OCCOCC)Cc1cccc(c1OCCOCC)C2` [C1c (diamine 3c, n=4)] showed a ring closure, effective molarity ([1]; 19-membered ring) of 0.01 M and a ring closure, K ([2]; 19-membered ring) of 0.03 M.
`CCCCCC/N=C/c1cc2c(OCCOCC)c(c1)Cc1cccc(c1OCCOCC)Cc1cc(/C=N/CCN)cc(c1OCCOCC)Cc1cccc(c1OCCOCC)C2` [C1a (diamine 3a, n=2)] gave a ring closure, effective molarity ([1]; 17-membered ring) of 0.05 M and a ring closure, K ([2]; 17-membered ring) of 0.025 M.
Molecule `CCCCCC/N=C/c1cc2c(OCCOCC)c(c1)Cc1cccc(c1OCCOCC)Cc1cc(/C=N/CCCN)cc(c1OCCOCC)Cc1cccc(c1OCCOCC)C2` [C1b (diamine 3b, n=3)] has a ring closure, effective molarity ([1]; 18-membered ring) of 0.5 M and a ring closure, K ([2]; 18-membered ring) of 0.9 M.
